Measured values published in patent US10081634B2, “Heterocyclic compound” (Daewoong Pharmaceutical Co., Ltd., priority 2014, dated 2018).

What was measured:
[1] = tested on: NCI-H460 cells; assay: Cancer cell growth inhibition experiment (MTT assay); assay type: cell-based; details: Homo sapiens; NCI-H460 lung cancer cell line; 48 hours treatment; MTT cell viability
Protocol: NCI-H460 cells, lung cancer cell lines, were cultured in 5% CO2, 37° C. incubator using a flask for 75 cm^2 tissue culture. 96-well plates were used for the evaluation. These were prepared by differently applying at concentrations in the range of 6,000 to 12,000 cells/well according to the growth rate of the cell lines. The medium containing 5% FBS were dispensed in 200 μL/well and used. The medium were cultured for 24 hours. After confirming the cell status and dispensing form of a 96-well plate under a microscope, they were used for subsequent experiments. The compounds were evaluated at concentrations of 100, 30, 10, 3, 1, 0.3, 0.03, 0.01 μM. After removing the existing medium, the compounds with various concentrations were treated in an amount of 200 μL/well. The compounds-treated plates were further cultured for 48 hours, and the cell viabilities were measured by MTT assay to calculate IC50 values.
% Inhibition and IC50 values of the respective compounds were calculated and analyzed using Sigma Plot 8.0. The case where the derived IC50 is 5 μM or less is represented by “A”, the case where the IC50 is 5 to 30 μM is represented by “B”, and the case where the IC50 is 30 μM or higher is represented by “C”.

[2] = target: T1, PRS (prolyl-tRNA synthetase) (Homo sapiens, UniProt P07814); assay: In vitro PRS enzyme activity inhibition experiment ([3H]proline, liquid scintillation); assay type: biochemical; details: purified PRS protein subcloned from EPRS cDNA; 37° C., 5 to 10 minutes; read-out: PRS IC50
T1 construct: the portion corresponding to PRS in cDNA of EPRS was subcloned; made in house
T1 sequence (P07814 1007-1512 limits assumed): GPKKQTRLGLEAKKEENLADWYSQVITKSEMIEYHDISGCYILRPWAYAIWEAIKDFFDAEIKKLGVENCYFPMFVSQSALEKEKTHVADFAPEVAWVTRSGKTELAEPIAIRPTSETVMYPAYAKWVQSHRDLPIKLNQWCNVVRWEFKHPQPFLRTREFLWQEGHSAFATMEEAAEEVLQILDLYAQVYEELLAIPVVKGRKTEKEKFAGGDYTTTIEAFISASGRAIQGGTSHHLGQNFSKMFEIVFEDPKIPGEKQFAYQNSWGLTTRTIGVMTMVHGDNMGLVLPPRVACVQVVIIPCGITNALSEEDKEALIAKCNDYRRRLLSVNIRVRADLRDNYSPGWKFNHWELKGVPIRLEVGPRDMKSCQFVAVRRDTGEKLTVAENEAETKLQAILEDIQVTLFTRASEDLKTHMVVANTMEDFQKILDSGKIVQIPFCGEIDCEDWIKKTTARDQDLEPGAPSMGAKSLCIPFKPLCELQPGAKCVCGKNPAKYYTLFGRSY
Procedure, shortened: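 Purified human PRS domain subcloned from EPRS cDNA, reacted at 37 °C for 5–10 min in 20 mM KPO4 pH 7.4, 6 mM MgAc, 5 mM ATP, tRNA, 0.5 mM DTT and [3H]proline. Compounds tested at 1 μM. Aminoacylation read on TCA-treated filter paper by liquid scintillation, giving % inhibition or IC50.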

| IC50 [1] [µM] | IC50 [2] [µM] | SMILES |
| --- | --- | --- |
| ≥ 30 | > 0.5 | O=C(C[C@H]1NCCC[C@@H]1O)Cn1c(C(F)(F)F)nc2cc(Cl)c(Cl)cc21 [Example 50, 1-(5,6-dichloro-2-(trifluoromethyl)-1H-benzo[d]imidazol-1-yl)-3-((2R,3S)-3-hydroxypiperidin-2-yl)propan-2-one] |
| ≥ 30 | < 0.1 | Cc1nc2cc(Cl)c(Cl)cc2n1CC(=O)C[C@H]1NCCC[C@@H]1O [Example 46, 1-(5,6-dichloro-2-methyl-1H-benzo[d]imidazol-1-yl)-3-((2R,3S)-3-hydroxypiperidin-2-yl)propan-2-one] |
| ≤ 5 | < 0.1 | O=C(C[C@H]1NCCC[C@@H]1O)Cn1cnc2c(F)c(Br)ccc21 [Example 20, 1-(5-bromo-4-fluoro-1H-benzo[d]imidazol-1-yl)-3-((2R,3S)-3-hydroxypiperidin-2-yl)propan-2-one] |
| ≥ 30 | > 0.5 | O=C(C[C@@H]1CCCN1)Cn1cnc2cc(Cl)c(Cl)cc21 [Example 90, (S)-1-(5,6-dichloro-1H-benzo[d]imidazol-1-yl)-3-(pyrrolidin-2-yl)propan-2-one] |
| ≥ 30 | > 0.5 | O=C(C[C@H]1NCCC[C@@H]1O)Cn1nnc2ccc(Cl)cc21 [Example 100, 1-(6-chloro-1H-benzo[d][1,2,3]triazol-1-yl)-3-((2R,3S)-3-hydroxypiperidin-2-yl)propan-2-one] |
| ≥ 30 | > 0.5 | OC(C[C@H]1NCCC[C@@H]1O)Cn1cnc2ccccc21 (stereo partly drawn) [Example 69, (2R,3S)-2-(3-(1H-benzo[d]imidazol-1-yl)-2-hydroxypropyl)piperidin-3-ol] |
| 5 to 30 | < 0.1 | O=C(C[C@H]1NCCC[C@@H]1O)Cn1cnc2ccc(C(F)(F)F)nc21 [Example 36, 1-((2R,3S)-3-hydroxypiperidin-2-yl)-3-(5-(trifluoromethyl)-3H-imidazo[4,5-b]pyridin-3-yl)propan-2-one] |
| ≤ 5 | < 0.1 | Cc1c(F)ccc2c1ncn2CC(=O)C[C@H]1NCCC[C@@H]1O [Example 13, 1-(5-fluoro-4-methyl-1H-benzo[d]imidazol-1-yl)-3-((2R,3S)-3-hydroxypiperidin-2-yl)propan-2-one] |
| ≥ 30 | > 0.5 | CCc1nc2cc(Cl)c(Cl)cc2n1CC(=O)C[C@H]1NCCC[C@@H]1O [Example 48, 1-(5,6-dichloro-2-ethyl-1H-benzo[d]imidazol-1-yl)-3-((2R,3S)-3-hydroxypiperidin-2-yl)propan-2-one] |
| ≥ 30 | < 0.1 | Cc1c(Br)cnc2c1ncn2CC(O)C[C@H]1NCCC[C@@H]1O (stereo partly drawn) [Example 78, (2R,3S)-2-(3-(6-bromo-7-methyl-3H-imidazo[4,5-b]pyridin-3-yl)-2-hydroxypropyl)piperidin-3-ol] |
| 5 to 30 | < 0.1 | O=C(C[C@H]1NCCC[C@@H]1O)Cn1cnc2c(C(F)(F)F)c(F)ccc21 [Example 17, 1-(5-fluoro-4-(trifluoromethyl)-1H-benzo[d]imidazol-1-yl)-3-((2R,3S)-3-hydroxypiperidin-2-yl)propan-2-one] |
| 5 to 30 | 0.1 to 0.5 | O=C(C[C@H]1NCCC[C@@H]1O)Cn1cnc2cc(F)c(F)cc21 [Example 10, 1-(5,6-difluoro-1H-benzo[d]imidazol-1-yl)-3-((2R,3S)-3-hydroxypiperidin-2-yl)propan-2-one] |
| 5 to 30 | < 0.1 | O=C(C[C@H]1NCCC[C@@H]1O)Cn1cnc2cc(Br)ccc21 [Example 4, 1-(5-bromo-1H-benzo[d]imidazol-1-yl)-3-((2R,3S)-3-hydroxypiperidin-2-yl)propan-2-one] |
| ≥ 30 | > 0.5 | O[C@H]1CCCN[C@@H]1CC(F)Cn1cnc2cc(Cl)c(Cl)cc21 (stereo partly drawn) [Example 81, (2R,3S)-2-(3-(5,6-dichloro-1H-benzo[d]imidazol-1-yl)-2-fluoropropyl)piperidin-3-ol] |
| 5 to 30 | 0.1 to 0.5 | O=C(C[C@H]1NCCC[C@@H]1O)Cn1c(CO)nc2cc(Br)ccc21 [Example 57, 1-(5-bromo-2-(hydroxymethyl)-1H-benzo[d]imidazol-1-yl)-3-((2R,3S)-3-hydroxypiperidin-2-yl)propan-2-one] |
| 5 to 30 | < 0.1 | O=C(C[C@H]1NCCC[C@@H]1O)Cn1cnc2cc(Cl)ccc21 [Example 2, 1-(5-chloro-1H-benzo[d]imidazol-1-yl)-3-((2R,3S)-3-hydroxypiperidin-2-yl)propan-2-one] |
| 5 to 30 | 0.1 to 0.5 | OC(C[C@H]1NCCC[C@@H]1O)Cn1cnc2cc(Cl)c(Cl)cc21 (stereo partly drawn) [Example 70, (2R,3S)-2-(3-(5,6-dichloro-1H-benzo[d]imidazol-1-yl)-2-hydroxypropyl)piperidin-3-ol] |
